Data taken from patent publication US20240336566A1, “CRYSTALLINE FORMS OF A COMPOUND FOR THE TARGETED DEGRADATION OF THE ANDROGEN RECEPTOR” (Arvinas Operations, Inc., priority 2023, published 2024).
“Also recorded” adds a separate entry of the source.

Experiment: Dynamic vapour sorption (DVS) with XRPD of retained solid
Format: physicochemical
Protocol: 10-20 mg of sample was placed into a mesh vapour sorption balance pan and loaded into a DVS-1 dynamic vapour sorption balance by Surface Measurement Systems. The sample was subjected to a ramping profile from 40-90% relative humidity (RH) at 10% increments, maintaining the sample at each step until a stable weight had been achieved (dm/dt 0.004%, minimum step length 30 minutes, maximum step length 500 minutes) at 25° C. After completion of the sorption cycle, the sample was dried using the same procedure to 0% RH and then a second sorption cycle back to 40% RH. Two cycles were performed. The weight change during the sorption/desorption cycles were plotted, allowing for the hygroscopic nature of the sample to be determined. XRPD analysis was then carried out on any solid retained.

COc1cc(O[C@H]2C(C)(C)[C@H](NC(=O)c3ccc(N4CCC(CN5CCN(c6ccc(C(=O)N[C@H]7CCC(=O)NC7=O)c(F)c6)CC5)CC4)cc3)C2(C)C)ccc1C#N [Compound A, 4-(4-((1-(4-(((1R,3R)-3-(4-cyano-3-methoxyphenoxy)-2,2,4,4-tetramethylcyclobutyl)carbamoyl)phenyl)piperidin-4-yl)methyl)piperazin-1-yl)-N—((S)-2,6-dioxopiperidin-3-yl)-2-fluorobenzamide]
form by XRPD post DVS: Crystallization was not observed; also recorded: remained amorphous by XRPD | hygroscopic nature (DVS) (25° C.): hygroscopic | average mass uptake of water (DVS) (at 90% RH, 25° C.): 4.08 wt. % | mass uptake of water (DVS), equivalents (at 90% RH, 25° C.): 1.91 eq.
